One test deals with P-P70S6K (T389). The test can be described thus: Cell based AlphaLISA assay, inhibition of P-P70S6K (T389) (mTORC1 substrate phosphorylation) in MDA-MB-468 cells. Conditions: Homo sapiens, 4 h, AlphaLISA, two to four hours at 37° C., read-out: pIC50 for Inhibition of mTORC1 and mTORC2 Substrate Phosphorylation, P-P70S6K-(T389) (converted). The essentials: (§1)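 Compound incubation stopped by buffer removal plus kit lysis buffer; lysates processed per kit protocol; Alpha signal read in duplicate. IC50: normalized regression fit, control-based normalization.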
Background: Bead proximity is the source of the signal in Alpha formats.

For the next test, the system named is P-4E-BP1 (T37/46). The test can be described thus: Cell based AlphaLISA assay, inhibition of P-4E-BP1 (T37/46) (mTORC1 substrate phosphorylation) in MDA-MB-468 cells. The note with it: Homo sapiens, MDA-MB-468, 4 h, AlphaLISA, two to four hours at 37° C., read-out: pIC50 for Inhibition of mTORC1 and mTORC2 Substrate Phosphorylation, P-4E-BP1-(T37/46) (converted). The method in brief:
as §1

The next test has as its system P-Akt (S473). The test can be described thus: Cell based AlphaLISA assay, inhibition of P-Akt (S473) (mTORC2 substrate phosphorylation) in MDA-MB-468 cells. The note with it: Homo sapiens, MDA-MB-468, 4 h, AlphaLISA, two to four hours at 37° C., read-out: pIC50 for Inhibition of mTORC1 and mTORC2 Substrate Phosphorylation, p-AKT 1/2/3 -(S473) (converted). The essentials:
as §1

As to `CO[C@H]1C[C@@H]2CC[C@@H](C)[C@@](O)(O2)C(=O)C(=O)N2CCCC[C@H]2C(=O)O[C@H]([C@H](C)C[C@@H]2CC[C@H](n3cc(COC(=O)NCCOCCOCCC(=O)NCc4cnc(N5CCN(c6ncc(C(=O)NCCCCn7nc(-c8ccc9oc(N)nc9c8)c8c(N)ncnc87)cn6)CC5)nc4)nn3)[C@H](OC)C2)CC(=O)[C@H](C)/C=C(\C)[C@@H](O)[C@@H](OC)C(=O)[C@H](C)C[C@H](C)/C=C/C=C/C=C/1C` [Example 181], the IC50 with P-P70S6K (T389) was less than 1 nM; with P-4E-BP1 (T37/46) it was less than 3.16 nM; with P-Akt (S473), 3.16 to 31.6 nM.
Taken in the same sequence, the figures for `CO[C@H]1C[C@@H]2CC[C@@H](C)[C@@](O)(O2)C(=O)C(=O)N2CCCC[C@H]2C(=O)O[C@H]([C@H](C)C[C@@H]2CC[C@H](n3cc(COC(=O)NCCOCCOCCC(=O)NCc4cnc(N5CCN(c6ncc(C(=O)NCCCCn7nc(-c8cc9cc(O)ccc9[nH]8)c8c(N)ncnc87)cn6)CC5)nc4)nn3)[C@H](OC)C2)CC(=O)[C@H](C)/C=C(\C)[C@@H](O)[C@@H](OC)C(=O)[C@H](C)C[C@H](C)/C=C/C=C/C=C/1C` [Example 182] were less than 1 nM, greater than 1000 nM and greater than 1000 nM.
Taken in the same sequence, the figures for `CO[C@H]1C[C@@H]2CC[C@@H](C)[C@@](O)(O2)C(=O)C(=O)N2CCCC[C@H]2C(=O)O[C@H]([C@H](C)C[C@@H]2CC[C@H](n3cc(COC(=O)NCCOCCOCCOCCC(=O)NCc4cnc(N5CCN(c6ncc(C(=O)NCCCCn7nc(-c8ccc9oc(N)nc9c8)c8c(N)ncnc87)cn6)CC5)nc4)nn3)[C@H](OC)C2)CC(=O)[C@H](C)/C=C(\C)[C@@H](O)[C@@H](OC)C(=O)[C@H](C)C[C@H](C)/C=C/C=C/C=C/1C` [Example 183] were less than 1 nM, less than 3.16 nM and 3.16 to 31.6 nM.
Take `CO[C@H]1C[C@@H]2CC[C@@H](C)[C@@](O)(O2)C(=O)C(=O)N2CCCC[C@H]2C(=O)O[C@H]([C@H](C)C[C@@H]2CC[C@H](n3cc(COC(=O)NCCOCCOCCOCCC(=O)NCc4cnc(N5CCN(c6ncc(C(=O)NCCCCn7nc(-c8cc9cc(O)ccc9[nH]8)c8c(N)ncnc87)cn6)CC5)nc4)nn3)[C@H](OC)C2)CC(=O)[C@H](C)/C=C(\C)[C@@H](O)[C@@H](OC)C(=O)[C@H](C)C[C@H](C)/C=C/C=C/C=C/1C` [Example 184]: the IC50 with P-P70S6K (T389) was less than 1 nM; in the test with P-4E-BP1 (T37/46), less than 3.16 nM; with P-Akt (S473) it was 3.16 to 31.6 nM.
Taken in the same sequence, the figures for `CO[C@H]1C[C@@H]2CC[C@@H](C)[C@@](O)(O2)C(=O)C(=O)N2CCCC[C@H]2C(=O)O[C@H]([C@H](C)C[C@@H]2CC[C@H](n3cc(COC(=O)NCCOCCOCCOCCOCCC(=O)NCc4cnc(N5CCN(c6ncc(C(=O)NCCCCn7nc(-c8ccc9oc(N)nc9c8)c8c(N)ncnc87)cn6)CC5)nc4)nn3)[C@H](OC)C2)CC(=O)[C@H](C)/C=C(\C)[C@@H](O)[C@@H](OC)C(=O)[C@H](C)C[C@H](C)/C=C/C=C/C=C/1C` [Example 185] were less than 1 nM, less than 3.16 nM and 3.16 to 31.6 nM.
Take `CO[C@H]1C[C@@H]2CC[C@@H](C)[C@@](O)(O2)C(=O)C(=O)N2CCCC[C@H]2C(=O)O[C@H]([C@H](C)C[C@@H]2CC[C@H](n3cc(COC(=O)NCCOCCOCCOCCOCCC(=O)NCc4cnc(N5CCN(c6ncc(C(=O)NCCCCn7nc(-c8cc9cc(O)ccc9[nH]8)c8c(N)ncnc87)cn6)CC5)nc4)nn3)[C@H](OC)C2)CC(=O)[C@H](C)/C=C(\C)[C@@H](O)[C@@H](OC)C(=O)[C@H](C)C[C@H](C)/C=C/C=C/C=C/1C` [Example 186]: the IC50 was less than 1 nM in the test with P-P70S6K (T389), 3.16 to 31.6 nM with P-4E-BP1 (T37/46) and 31.6 to 1000 nM in the test on P-Akt (S473).
Take `COc1cccc2cc(-c3nc([C@H]4CC[C@H](C(=O)NCCOCCOCCNC(=O)CCOCCOCCOCCOCCn5cc(CCCCO[C@@H]6CC[C@@H](C[C@@H](C)[C@@H]7CC(=O)[C@H](C)/C=C(\C)[C@@H](O)[C@@H](OC)C(=O)[C@H](C)C[C@H](C)/C=C/C=C/C=C(\C)[C@@H](OC)C[C@@H]8CC[C@@H](C)[C@@](O)(O8)C(=O)C(=O)N8CCCC[C@H]8C(=O)O7)C[C@H]6OC)nn5)CC4)n4ncnc(N)c34)[nH]c12` [Example 187]: the IC50 with P-P70S6K (T389) was less than 1 nM; in the test on P-4E-BP1 (T37/46) it was less than 3.16 nM; in the test with P-Akt (S473) it was 3.16 to 31.6 nM.
Consider `COc1cccc2cc(-c3nc([C@H]4CC[C@H](C(=O)NCCOCCOCCNC(=O)CCOCCOCCOCCOCCn5cc(CCCCO[C@@H]6CC[C@@H](C[C@@H](C)[C@@H]7C[C@@H](OC)[C@H](C)/C=C(\C)[C@@H](O)[C@@H](OC)C(=O)[C@H](C)C[C@H](C)/C=C/C=C/C=C(\C)[C@@H](OC)C[C@@H]8CC[C@@H](C)[C@@](O)(O8)C(=O)C(=O)N8CCCC[C@H]8C(=O)O7)C[C@H]6OC)nn5)CC4)n4ncnc(N)c34)[nH]c12` [Example 188], for which the IC50 with P-P70S6K (T389) is less than 1 nM; with P-4E-BP1 (T37/46), less than 3.16 nM; in the test with P-Akt (S473) it was 31.6 to 1000 nM.
The matching figures for `COc1cccc2cc(-c3nc([C@H]4CC[C@H](C(=O)NCCOCCOCCOCCNC(=O)CCOCCOCCOCCOCCn5cc(CCCCO[C@@H]6CC[C@@H](C[C@@H](C)[C@@H]7CC(=O)[C@H](C)/C=C(\C)[C@@H](O)[C@@H](OC)C(=O)[C@H](C)C[C@H](C)/C=C/C=C/C=C(\C)[C@@H](OC)C[C@@H]8CC[C@@H](C)[C@@](O)(O8)C(=O)C(=O)N8CCCC[C@H]8C(=O)O7)C[C@H]6OC)nn5)CC4)n4ncnc(N)c34)[nH]c12` [Example 189]: less than 1 nM, less than 3.16 nM and 3.16 to 31.6 nM.
Taken in the same sequence, the figures for `COc1cccc2cc(-c3nc([C@H]4CC[C@H](C(=O)NCCOCCOCCOCCNC(=O)CCOCCOCCOCCOCCn5cc(CCCCO[C@@H]6CC[C@@H](C[C@@H](C)[C@@H]7C[C@@H](OC)[C@H](C)/C=C(\C)[C@@H](O)[C@@H](OC)C(=O)[C@H](C)C[C@H](C)/C=C/C=C/C=C(\C)[C@@H](OC)C[C@@H]8CC[C@@H](C)[C@@](O)(O8)C(=O)C(=O)N8CCCC[C@H]8C(=O)O7)C[C@H]6OC)nn5)CC4)n4ncnc(N)c34)[nH]c12` [Example 190] were less than 1 nM, 3.16 to 31.6 nM and 31.6 to 1000 nM.
Taken in the same sequence, the figures for `CO[C@H]1C[C@@H]2CC[C@@H](C)[C@@](O)(O2)C(=O)C(=O)N2CCCC[C@H]2C(=O)O[C@H]([C@H](C)C[C@@H]2CC[C@@H](O)[C@H](OC)C2)C[C@@H](O)[C@H](C)/C=C(\C)[C@@H](O)[C@@H](OC)C(=NOCc2cn(-c3cnc(N4CCN(c5ncc(C(=O)NCCOCCC(=O)NCCCCn6nc(-c7ccc8oc(N)nc8c7)c7c(N)ncnc76)cn5)CC4)nc3)nn2)[C@H](C)C[C@H](C)/C=C/C=C/C=C/1C` [Example 191] were less than 1 nM, less than 3.16 nM and greater than 1000 nM.
Turning to `CO[C@H]1C[C@@H]2CC[C@@H](C)[C@@](O)(O2)C(=O)C(=O)N2CCCC[C@H]2C(=O)O[C@H]([C@H](C)C[C@@H]2CC[C@@H](O)[C@H](OC)C2)C[C@@H](O)[C@H](C)/C=C(\C)[C@@H](O)[C@@H](OC)C(=NOCc2cn(-c3cnc(N4CCN(c5ncc(C(=O)NCCOCCOCCC(=O)NCCCCn6nc(-c7ccc8oc(N)nc8c7)c7c(N)ncnc76)cn5)CC4)nc3)nn2)[C@H](C)C[C@H](C)/C=C/C=C/C=C/1C` [Example 192], the IC50 is less than 1 nM in the test with P-P70S6K (T389), 3.16 to 31.6 nM in the test on P-4E-BP1 (T37/46) and greater than 1000 nM with P-Akt (S473).
The matching figures for `CO[C@H]1C[C@@H]2CC[C@@H](C)[C@@](O)(O2)C(=O)C(=O)N2CCCC[C@H]2C(=O)O[C@H]([C@H](C)C[C@@H]2CC[C@@H](O)[C@H](OC)C2)C[C@@H](O)[C@H](C)/C=C(\C)[C@@H](O)[C@@H](OC)C(=NOCc2cn(-c3cnc(N4CCN(c5ncc(C(=O)NCCOCCOCCOCCC(=O)NCCCCn6nc(-c7ccc8oc(N)nc8c7)c7c(N)ncnc76)cn5)CC4)nc3)nn2)[C@H](C)C[C@H](C)/C=C/C=C/C=C/1C` [Example 193]: less than 1 nM, 3.16 to 31.6 nM and greater than 1000 nM.
Taken in the same sequence, the figures for `CO[C@H]1C[C@@H]2CC[C@@H](C)[C@@](O)(O2)C(=O)C(=O)N2CCCC[C@H]2C(=O)O[C@H]([C@H](C)C[C@@H]2CC[C@@H](O)[C@H](OC)C2)C[C@@H](O)[C@H](C)/C=C(\C)[C@@H](O)[C@@H](OC)C(=NOCc2cn(-c3cnc(N4CCN(c5ncc(C(=O)NCCOCCC(=O)NCCCCn6nc(-c7ccc8oc(N)nc8c7)c7c(N)ncnc76)cn5)CC4CO)nc3)nn2)[C@H](C)C[C@H](C)/C=C/C=C/C=C/1C` (stereo partly drawn) [Example 194] were less than 1 nM, greater than 1000 nM and greater than 1000 nM.
Taken in the same sequence, the figures for `CO[C@H]1C[C@@H]2CC[C@@H](C)[C@@](O)(O2)C(=O)C(=O)N2CCCC[C@H]2C(=O)O[C@H]([C@H](C)C[C@@H]2CC[C@H](n3cc(COCCOCCOCCOCCOCCOCCOCCOCCOCCOCCC(=O)NCCCCn4nc(-c5cc6cc(O)ccc6[nH]5)c5c(N)ncnc54)nn3)[C@H](OC)C2)CC(=O)[C@H](C)/C=C(\C)[C@@H](O)[C@@H](OC)C(=O)[C@H](C)C[C@H](C)/C=C/C=C/C=C/1C` [Example 196] were 1 to 10 nM, 3.16 to 31.6 nM and 31.6 to 1000 nM.

For the origin of these results see patent US20230093861A1, “RAPAMYCIN ANALOGS AS MTOR INHIBITORS” (Revolution Medicines, Inc., priority 2017, published 2023).
